Measurements taken from ChEMBL document CHEMBL4145628, “Strategy for Extending Half-life in Drug Design and Its Significance” (ACS Med Chem Lett, 2018).

Tests used:
[1] = Effective half life in rat; assay type: ADME, organism-based; conditions: in vivo, read-out: t1/2eff (converted)
[2] = Bioavailability in rat; assay type: ADME, organism-based; conditions: in vivo
[3] = Plasma clearance in rat; assay type: ADME, organism-based
[4] = Fraction unbound in rat plasma; assay type: ADME, cell-free

Compound	half-life [1]	bioavailability [2]	clearance [3]	fraction unbound [4]
CC1(Oc2ccc3[nH]nc(-c4cc(N5CCO[C@@H](CO)C5)ncn4)c3c2)CC1	29.4 min	36%	78 mL/min/kg	0.051
C[C@H]1CN(c2cc(-c3n[nH]c4ccc(OC5(C)CC5)cc34)ncn2)CCO1	31.2 min	32%	69 mL/min/kg	0.019
CC(C)Oc1ccc2[nH]nc(-c3cc(N4C[C@@H](C)O[C@@H](C)C4)ncn3)c2c1	34.2 min	25%	64 mL/min/kg	0.017
CC(C)Oc1cc2c(-c3cc(N4C[C@@H](C)O[C@@H](C)C4)ncn3)n[nH]c2cc1F	56.4 min	20%	65 mL/min/kg	0.008
